This is an account of results in US20010039287A1, “AROMATIC SULFONE HYDROXAMIC ACID METALLOPROTEASE INHIBITOR” (priority 1997, published 2001).

Assay in all cases: biochemical
One assay addresses T1, recombinant human MMP-2 (Homo sapiens, UniProt P08253).
T1 sequence (P08253 110-660): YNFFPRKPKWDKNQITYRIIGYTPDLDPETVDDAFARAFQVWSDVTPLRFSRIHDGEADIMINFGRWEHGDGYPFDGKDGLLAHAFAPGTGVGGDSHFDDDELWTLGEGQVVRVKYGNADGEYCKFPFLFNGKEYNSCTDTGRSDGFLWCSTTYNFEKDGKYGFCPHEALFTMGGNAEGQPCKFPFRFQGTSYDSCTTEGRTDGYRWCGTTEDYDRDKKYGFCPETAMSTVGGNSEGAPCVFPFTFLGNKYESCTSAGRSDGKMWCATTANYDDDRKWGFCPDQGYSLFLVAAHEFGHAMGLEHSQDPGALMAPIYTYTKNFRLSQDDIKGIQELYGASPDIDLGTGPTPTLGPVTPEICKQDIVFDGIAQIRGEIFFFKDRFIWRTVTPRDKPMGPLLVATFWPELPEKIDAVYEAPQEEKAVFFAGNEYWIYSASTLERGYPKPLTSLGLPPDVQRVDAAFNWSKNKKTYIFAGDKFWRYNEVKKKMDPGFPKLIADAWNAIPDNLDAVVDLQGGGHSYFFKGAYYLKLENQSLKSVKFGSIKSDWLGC
Conditions: read-out: MMP-2 IC50.

For a further assay, the target named is recombinant human MMP-13 (Homo sapiens, UniProt P45452). Conditions: read-out: MMP-13 IC50.
The next assay addresses T2, recombinant human MMP-1 (Homo sapiens, UniProt P03956).
T2 construct: made in house; host or cells: transfected HT-1080 cells (provided by Dr. Harold Welgus, Washington University)
T2 sequence (P03956 100-469): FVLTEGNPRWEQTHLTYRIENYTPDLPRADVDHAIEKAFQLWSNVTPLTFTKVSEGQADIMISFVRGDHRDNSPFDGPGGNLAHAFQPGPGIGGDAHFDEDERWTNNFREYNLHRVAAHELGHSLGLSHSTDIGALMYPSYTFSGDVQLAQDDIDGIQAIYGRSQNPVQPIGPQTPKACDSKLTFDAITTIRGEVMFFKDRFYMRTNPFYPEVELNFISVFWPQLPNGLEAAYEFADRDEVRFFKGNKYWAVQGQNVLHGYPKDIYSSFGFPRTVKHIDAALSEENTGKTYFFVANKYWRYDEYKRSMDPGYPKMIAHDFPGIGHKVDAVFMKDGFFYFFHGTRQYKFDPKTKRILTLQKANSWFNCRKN
Conditions: read-out: MMP-1 IC50.

For the next assay, the target named is recombinant human MMP-9 (Homo sapiens, UniProt P14780). Conditions: read-out: MMP-9 IC50.
Sequence of recombinant human MMP-9 (P14780 107-707 limits assumed): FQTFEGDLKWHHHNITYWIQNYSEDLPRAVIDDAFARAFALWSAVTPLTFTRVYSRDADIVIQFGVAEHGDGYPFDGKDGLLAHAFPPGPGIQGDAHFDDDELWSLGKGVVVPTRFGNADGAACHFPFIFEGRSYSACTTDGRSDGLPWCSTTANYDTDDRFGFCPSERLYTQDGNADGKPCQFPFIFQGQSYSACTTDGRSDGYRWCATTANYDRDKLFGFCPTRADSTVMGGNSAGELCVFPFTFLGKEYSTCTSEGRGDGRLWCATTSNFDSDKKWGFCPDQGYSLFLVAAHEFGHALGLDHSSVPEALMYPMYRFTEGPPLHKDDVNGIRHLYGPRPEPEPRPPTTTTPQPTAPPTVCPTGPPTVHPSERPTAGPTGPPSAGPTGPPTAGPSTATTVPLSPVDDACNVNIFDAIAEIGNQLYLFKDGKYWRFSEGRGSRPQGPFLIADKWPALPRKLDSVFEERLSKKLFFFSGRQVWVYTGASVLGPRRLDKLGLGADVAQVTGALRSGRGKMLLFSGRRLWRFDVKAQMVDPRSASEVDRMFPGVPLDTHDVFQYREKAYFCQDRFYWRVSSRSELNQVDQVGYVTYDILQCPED

Structures can show the parent of a compound that is named as a salt. Where two headings read alike, the source gives them in different places.

The term IC50 denotes the concentration that inhibits the measured activity by half. For `O=C(CS(=O)(=O)c1ccc(Oc2ccccc2)cc1)NO` [Example 1], the IC50 was 2.6 nM at recombinant human MMP-2 (Inhibition Table A), 5.1 nM at recombinant human MMP-13 (Inhibition Table A), 6600 nM at recombinant human MMP-1 (Inhibition Table A) and 31.6 nM at recombinant human MMP-9 (Inhibition Table A).
On the same counts, the results for `CC(C)(C(=O)NO)S(=O)(=O)c1ccc(Oc2ccccc2)cc1` [Example 2] are 0.1 nM, 0.25 nM, 220 nM and 1.4 nM.
The matching figures for `CCCCOC1CCN(c2ccc(S(=O)(=O)C3(C(=O)NO)CCOCC3)cc2)CC1` [Example 16]: 100 nM, 2.4 nM, > 10000 nM and 2500 nM.
The matching figures for `C#CCN1CCC(C(=O)NO)(S(=O)(=O)c2ccc(Sc3ccc(F)cc3)cc2)CC1` [Example 24]: 1 nM, 0.4 nM, > 10000 nM and 3.7 nM.
For the molecule `O=C(NO)C1(S(=O)(=O)c2ccc(Oc3ccc(-n4cncn4)cc3)cc2)CCOCC1` [Example 26], the IC50 at recombinant human MMP-2 (Inhibition Table A) was determined as 0.2 nM; at recombinant human MMP-13 (Inhibition Table A) it was 0.5 nM; at recombinant human MMP-1 (Inhibition Table A), 7700 nM; on recombinant human MMP-9 (Inhibition Table A), 7 nM.
With `COCCN1CCC(C(=O)NO)(S(=O)(=O)c2ccc(Oc3ccccc3)cc2)CC1` [Example 30], the IC50 at recombinant human MMP-2 (Inhibition Table B) stood at 0.1 nM; on recombinant human MMP-13 (Inhibition Table B), 0.1 nM; at recombinant human MMP-1 (Inhibition Table B), 350 nM; at recombinant human MMP-9 (Inhibition Table B) it was 0.3 nM.
Turning to `C#CCN1CCC(C(=O)NO)(S(=O)(=O)c2ccc(Oc3ccc(OC)c(OC)c3)cc2)CC1` [Example 38, 4-[[4-(3,4-dimethoxyphenoxy)phenyl]sulfonyl]-N-hydroxy-1-(2-propynyl)-4-piperidinecarboxamide, Monohydrochloride], the IC50 is 20 nM on recombinant human MMP-2 (Inhibition Table B), 22 nM at recombinant human MMP-13 (Inhibition Table B), > 10000 nM at recombinant human MMP-1 (Inhibition Table B) and 135 nM on recombinant human MMP-9 (Inhibition Table B).
On the same counts, the results for `CS(=O)(=O)N1CCC(C(=O)NO)(S(=O)(=O)c2ccc(Oc3ccc4c(c3)OCO4)cc2)CC1` [Example 42, 4-[[4-(1,3-benzodioxol-5-yloxy)phenyl]sulfonyl]-N-hydroxy-1-(methylsulfonyl)-4-piperidinecarboxamide] are 0.2 nM, 0.4 nM, 2200 nM and 1.3 nM.
With `O=C(NO)C1(S(=O)(=O)c2ccc(Sc3ccccc3)cc2)CC[S+]([O-])CC1` (centres unmarked) [Example 113], the 50% inhibitory concentration (IC50) on recombinant human MMP-2 (Inhibition Table B) is 0.9 nM; at recombinant human MMP-13 (Inhibition Table B) it was 4 nM; on recombinant human MMP-1 (Inhibition Table B), > 10000 nM.
Turning to `Nc1ccc(Sc2ccc(S(=O)(=O)C3(C(=O)NO)CCOCC3)cc2)cc1` [Example 120, 4-[[4-[(4-aminophenyl)thio]phenyl]-sulfonyl]tetrahydro-N-hydroxy-2H-pyran-4-carboxamide], the IC50 was 0.4 nM at recombinant human MMP-2 (Inhibition Table B), 0.4 nM on recombinant human MMP-13 (Inhibition Table B) and 4000 nM on recombinant human MMP-1 (Inhibition Table B).
Take `Cc1nc2cc(Oc3ccc(S(=O)(=O)C4(C(=O)NO)CCOCC4)cc3)ccc2s1` [Example 121, tetrahydro-N-hydroxy-4-[[4-[(2-methyl-5-benzothiazolyl)-oxy]phenyl]sulfonyl]-2H-pyran-4-carboxamide]: the results for the IC50 at recombinant human MMP-2 (Inhibition Table B), at recombinant human MMP-13 (Inhibition Table B) and at recombinant human MMP-1 (Inhibition Table B) were < 0.1 nM, 0.2 nM and 1200 nM, respectively.
On the same counts, the results for `O=C(NO)C1(S(=O)(=O)c2ccc(Oc3ccc(Cl)c(F)c3)cc2)CCOCC1` [Example 122, 4-[[4-(4-chloro-3-fluorophenoxy)phenyl]sulfonyl]-tetrahydro-N-hydroxy-2H-pyran-4-carboxamide] are 0.1 nM, 0.15 nM and 600 nM.
The matching figures for `CCOC(=O)N1CCN(c2ccc(S(=O)(=O)C3(C(=O)NO)CCOCC3)cc2)CC1` [Example 126]: 11.3 nM, 10 nM and 8000 nM.
Consider `O=C(NO)C1(S(=O)(=O)c2ccc(N3CCN(CCO)CC3)cc2)CCOCC1` [Example 127], for which the IC50 on recombinant human MMP-2 (Inhibition Table B) is 37 nM; on recombinant human MMP-13 (Inhibition Table B), 40 nM; on recombinant human MMP-1, > 10000 nM.
On to `COc1ccccc1N1CCN(c2ccc(S(=O)(=O)C3(C(=O)NO)CCOCC3)cc2)CC1` [Example 128], for which the IC50 on recombinant human MMP-2 (Inhibition Table B) is 23.8 nM; at recombinant human MMP-13 (Inhibition Table B) it was 20 nM; on recombinant human MMP-1 (Inhibition Table B) it was > 10000 nM.
The matching figures for `O=C(NCC(F)(F)F)C1CCN(c2ccc(S(=O)(=O)C3(C(=O)NO)CCOCC3)cc2)CC1` [Example 180]: 128 nM, 4 nM and 5000 nM.
The matching figures for `O=C(NCc1ccc(F)cc1)C1CCN(c2ccc(S(=O)(=O)C3(C(=O)NO)CCOCC3)cc2)CC1` [Example 197]: 145 nM, 8 nM and 7000 nM.
On the same counts, the results for `O=C(C1CCCCC1)N1CCN(c2ccc(S(=O)(=O)C3(C(=O)NO)CCOCC3)cc2)CC1` [Example 200] are 24 nM, 17.5 nM and > 10000 nM.
Turning to `O=C(C1CCc2ccccc2C1)N1CCN(c2ccc(S(=O)(=O)C3(C(=O)NO)CCOCC3)cc2)CC1` (centres unmarked) [Example 201], the IC50 on recombinant human MMP-2 (Inhibition Table B) was 22.4 nM; at recombinant human MMP-13 (Inhibition Table B) it was 13.6 nM; on recombinant human MMP-1 (Inhibition Table B), > 10000 nM.
On the same counts, the results for `O=C(N1CCCCC1)N1CCN(c2ccc(S(=O)(=O)C3(C(=O)NO)CCOCC3)cc2)CC1` [Example 206] are > 10 nM, 20 nM and > 10000 nM.
On the same counts, the results for `O=C(NO)C1(S(=O)(=O)c2ccc(-c3ccccc3)cc2)CCOCC1` [Example 213] are < 1 nM, < 1 nM and 310 nM.
On to `O=C(NO)C1(S(=O)(=O)c2ccc(-c3ccsc3)cc2)CCOCC1` [Example 215], for which the values for the IC50 on recombinant human MMP-2 (Inhibition Table B), at recombinant human MMP-13 (Inhibition Table B) and on recombinant human MMP-1 (Inhibition Table B) were < 1 nM, < 1 nM and 250 nM, respectively.
For `O=C(NO)C1(S(=O)(=O)c2ccc(-c3cccc(C(F)(F)F)c3)cc2)CCOCC1` [Example 219], the IC50 was < 1 nM on recombinant human MMP-2 (Inhibition Table B), < 1 nM on recombinant human MMP-13 (Inhibition Table B) and > 10000 nM at recombinant human MMP-1 (Inhibition Table B).
In the case of `O=C(NO)C1(S(=O)(=O)c2ccc(-c3cccc4ccccc34)cc2)CCOCC1` [Example 224], the IC50 was 18.1 nM at recombinant human MMP-2 (Inhibition Table B), 16.7 nM at recombinant human MMP-13 (Inhibition Table B) and > 10000 nM on recombinant human MMP-1 (Inhibition Table B).
With `Cc1ccccc1-c1ccc(S(=O)(=O)C2(C(=O)NO)CCOCC2)cc1` [Example 225], the figures for the IC50 on recombinant human MMP-2 (Inhibition Table B), at recombinant human MMP-13 (Inhibition Table B) and at recombinant human MMP-1 (Inhibition Table B) were 54 nM, 70 nM and > 10000 nM, respectively.
For the molecule `CC(C)(C)c1ccc(-c2ccc(S(=O)(=O)C3(C(=O)NO)CCOCC3)cc2)cc1` [Example 226], the IC50 at recombinant human MMP-2 (Inhibition Table B) was 18.6 nM; at recombinant human MMP-13 (Inhibition Table B) it was 6 nM; on recombinant human MMP-1 (Inhibition Table B), > 10000 nM.
On the same counts, the results for `O=C(NO)C1(S(=O)(=O)c2ccc(-c3ccc4ccccc4c3)cc2)CCOCC1` [Example 227] are < 1 nM, < 1 nM and > 10000 nM.
On the same counts, the results for `O=Cc1cccc(-c2ccc(S(=O)(=O)C3(C(=O)NO)CCOCC3)cc2)c1` [Example 228] are < 1 nM, < 1 nM and 600 nM.
For `O=Cc1ccccc1-c1ccc(S(=O)(=O)C2(C(=O)NO)CCOCC2)cc1` [Example 230], the IC50 on recombinant human MMP-2 (Inhibition Table B) was > 100 nM; at recombinant human MMP-13 (Inhibition Table B), > 100 nM; at recombinant human MMP-1 (Inhibition Table B) it was > 10000 nM.
Take `O=Cc1ccc(-c2ccc(S(=O)(=O)C3(C(=O)NO)CCOCC3)cc2)cc1` [Example 231]: the values for the IC50 at recombinant human MMP-2 (Inhibition Table B), at recombinant human MMP-13 (Inhibition Table B) and on recombinant human MMP-1 (Inhibition Table B) were < 1 nM, < 1 nM and 650 nM, respectively.
For `Nc1cccc(-c2ccc(S(=O)(=O)C3(C(=O)NO)CCOCC3)cc2)c1` [Example 232], the IC50 at recombinant human MMP-2 (Inhibition Table B) was < 1 nM; on recombinant human MMP-13 (Inhibition Table B), < 1 nM; on recombinant human MMP-1 (Inhibition Table B), < 100 nM.
For “N,N-dimethyl-5-[4-[[tetrahydro-4-1[(hydroxyamino)-carbonyl]-2H-pyran-4-yl]sulfonyl]-phenoxy]-1H-indole-2-carboxamide, Trifluoroacetic Acid Salt [Example 124]”, the IC50 on recombinant human MMP-2 (Inhibition Table B) turned out to be 0.5 nM; on recombinant human MMP-13 (Inhibition Table B), 1.1 nM; on recombinant human MMP-1 (Inhibition Table B), 1000 nM.
